Assay results taken from article PMC12022103 (Scientific Reports, 2025).
Non-standard residues stand in square brackets, D forms with d. Residues, ends and D or L forms follow the SMILES beside them. No end group written: not given here.

How the values were obtained:
[1] = test system: E. coli ATCC 25922; assay: Frequency of resistance determination (p0 method); type: cell-based, Escherichia coli; conditions: E. coli ATCC 25922, 40 cultures, 4 × MIC, 24–48 h, colistin as reference, triplicate
Excerpt: The method was based on the Fluctuation assay (p0 method; Luria and Delbrück) for determination of mutation rate[33],[34], and optimized for selection of mutants in liquid medium. Colistin sulfate (Thermo Scientific, 15575146) served as control in experimentation. Initially, the MIC of colistin and peptides was verified through broth dilution in 96-well plates (as detailed above). In order to account for potential phenotypic heterogeneity among colonies derived from the same frozen stock, multiple colonies of E. coli ATCC 25922 were picked and inoculated in 2 mL MHII broth overnight at 37°C with continuous shaking. The following day, aliquots of colistin and peptide solutions were prepared in MHII broth at working concentrations 20 times the MIC. […] The plates were incubated at 37 °C in a humidified box, and OD was measured at 600 nm using a microplate reader (Victor Nivo, Perkin-Elmer) after 0, 24 and 48 h of incubation. […]
To calculate the viable bacterial counts, the overnight culture was serially diluted 10-fold in MHII, after which 5 µl of the 10^− 3 – 10^− 9 dilutions were spotted onto MHII agar plates and incubated overnight at 37 °C. CFUs were counted the following day to determine CFU/mL of the overnight culture. […] The mutation rate, or frequency of resistance, was calculated using the following formula: […]

[2] = test system: K. pneumoniae ATCC 13883; assay: Minimum inhibitory concentration (MIC), broth dilution; type: cell-based; conditions: for MIC, K. pneumoniae: K. pneumoniae ATCC 13883, MH II broth, 5 × 10^5 CFU/mL, 18–24 h, 37 °C, OD600, triplicate, highest number reported, detection limit <0.5 and >128 µM
Procedure: (§1) The panel of bacterial reference strains used in this work for assessment of synthetic peptide activity originated from the American Type Culture Collection (ATCC) and was obtained from the Diagnostic section at the Department of Microbiology, Oslo University Hospital. The strains used were as follows: E. coli ATCC 25922, K. pneumoniae ATCC 13883, A. baumannii ATCC 17978, S. aureus ATCC 29213, and E. faecalis ATCC 29212.
(§2) Bacterial strains were plated on cation-adjusted Mueller-Hinton (MH II) agar plates and incubated at 37 °C overnight. The day after single colonies were picked and resuspended in sterile-filtered saline (0.9%). The OD of each bacterial suspension was adjusted to McFarland standard 0.5 using a spectrophotometer (UV-1800, Shimadzu), and the suspension further diluted 1:100 in MH II broth, corresponding to 10^6 colony forming units (CFU) per mL. The inoculum suspension was used for MIC, MBC, time-kill and protease stability assessments as described below. To ensure correct inoculum sizes, 10 µL of the bacterial suspensions were diluted 2000-fold in sterile-filtered saline (0.9%) and 100 µL plated onto MH II agar plates. After overnight incubation at 37 °C, colonies were counted. If found to be outside the acceptable number (20–80 colonies per plate corresponding to ∼10^6 CFU/mL), results from further analyses were discarded.
(§3) The peptides were serially diluted (two-fold) directly in 96-well plates (Greiner, MICROPLATE, 96 WELL, PP, U-BOTTOM, NATURAL, 650261) containing MH II broth, corresponding to concentrations in the range 256–0.5 µM. An equal volume of bacterial suspension was added to each well, resulting in a final inoculum of 5 × 10^5 CFU/mL and final peptide concentrations of 128–0.25 µM. The 96-well plates were incubated for 18–24 h at 37 °C, after which the OD of each well was measured at 600 nm in a plate reader (Victor Nivo, Perkin-Elmer). The minimum inhibitory concentration (MIC) was estimated as the lowest concentration of peptide that produced OD600 measurements similar to the control wells containing no bacteria. The experiments were performed in triplicate. Two-fold variations in MIC values were often observed between replicates.

[3] = test system: E. faecalis ATCC 29212; assay: as above; type: cell-based; conditions: for MIC, E. faecalis: E. faecalis ATCC 29212, MH II broth, 5 × 10^5 CFU/mL, 18–24 h, 37 °C, OD600, triplicate, highest number reported, detection limit <0.5 and >128 µM
Procedure: as §1, §2, §3

[4] = test system: S. aureus ATCC 29213; assay: as above; type: cell-based; conditions: for MIC, S. aureus: S. aureus ATCC 29213, MH II broth, 5 × 10^5 CFU/mL, 18–24 h, 37 °C, OD600, triplicate, highest number reported, detection limit <0.5 and >128 µM
Procedure: as §1, §2, §3

[5] = test system: E. coli; assay: Cell morphology by phase contrast microscopy; type: cell-based, Escherichia coli; conditions: 10× MIC, 5 min exposure, preliminary
Procedure: To explore the potential correlation between general membrane destabilization and our FoR data, we conducted a brief preliminary examination of E. coli cell morphology following a pulsed exposure to our top four peptide candidates at 10× MIC. Cells were imaged by using phase contrast microscopy after 5 min of exposure. […] However, additional research using complementary techniques are necessary to conclusively characterize their killing mechanism.

[6] = test system: E. coli ATCC 25922; assay: Minimum inhibitory concentration (MIC), broth dilution; type: cell-based, Escherichia coli; conditions: for MIC, E. coli: E. coli ATCC 25922, two-fold dilution in MH II broth, 5 × 10^5 CFU/mL, 18–24 h, 37 °C, OD600, triplicate, highest number reported, detection limit <0.5 and >128 µM
Procedure: as §1, §2, §3

[7] = test system: P. aeruginosa; assay: Minimum bactericidal concentration (MBC); type: cell-based; conditions: 5 µL from MIC wells plated on MH II agar, 37 °C overnight, no visible colonies; triplicate, highest number reported
[8] = test system: E. coli ATCC 25922; assay: Minimum bactericidal concentration (MBC); type: cell-based, Escherichia coli; conditions: 5 µL from MIC wells plated on MH II agar, 37 °C overnight, no visible colonies, triplicate, highest number reported, detection limit <0.5 and >128 µM
Procedure: as §1, §2
(§4) In order to assess the minimum bactericidal concentration (MBC) of peptides, 5 µL from each well of the 96-well plate used for MIC analysis was plated onto MH II agar and incubated at 37 °C overnight. […] The experiments were performed in triplicate. Two-fold variations in MIC values were often observed between replicates.

[9] = test system: A. baumannii ATCC 17978; assay: Minimum inhibitory concentration (MIC), broth dilution; type: cell-based; conditions: MH II broth, 5 × 10^5 CFU/mL, 18–24 h, 37 °C, OD600, triplicate, highest number reported, detection limit <0.5 and >128 µM
Procedure: as §1, §2, §3

[10] = test system: K. pneumoniae ATCC 13883; assay: Minimum bactericidal concentration (MBC); type: cell-based; conditions: 5 µL from MIC wells plated on MH II agar, 37 °C overnight, no visible colonies, triplicate, highest number reported
Procedure: as §1, §2, §4

[11] = test system: A. baumannii ATCC 17978; assay: Minimum bactericidal concentration (MBC); type: cell-based; conditions: 5 µL from MIC wells plated on MH II agar, 37 °C overnight, no visible colonies, triplicate, highest number reported
Procedure: as §1, §2, §4

[12] = test system: E. faecalis ATCC 29212; assay: Minimum bactericidal concentration (MBC); type: cell-based; conditions: 5 µL from MIC wells plated on MH II agar, 37 °C overnight, no visible colonies, triplicate, highest number reported
Procedure: as §1, §2, §4

[13] = test system: S. aureus ATCC 29213; assay: Minimum bactericidal concentration (MBC); type: cell-based; conditions: 5 µL from MIC wells plated on MH II agar, 37 °C overnight, no visible colonies, triplicate, highest number reported
Procedure: as §1, §2, §4

[14] = test system: P. aeruginosa; assay: Minimum inhibitory concentration (MIC), broth dilution; type: cell-based; conditions: MH II broth, 5 × 10^5 CFU/mL, 18–24 h, 37 °C, OD600; triplicate, highest number reported; detection limit <0.5 and >128 µM
[15] = Solubility of peptides; type: physicochemical; conditions: solvent as stated in the value
[16] = test system: E. coli ATCC 25922; assay: Time-kill experiments; type: cell-based, Escherichia coli; conditions: E. coli ATCC 25922, at the MBC; detection limit 100 CFU/mL; triplicate
Procedure: as §2
Four Eppendorf tubes were set up containing 0.5 mL of E. coli inoculum, prepared as described above. To the tubes were added peptides corresponding to final concentrations of ½×MIC, MIC and 2×MIC (see Fig. 3). One tube served as growth control (no added peptide). Then, 50 µL of culture were sampled from the tubes at timepoints 0, 0.25, 0.5, 2, 5 and 24 h. […] The day after, CFU/mL was calculated based on colony counts and dilution factor. […]

Compound	Frequency of resistance (FoR) (in words) [1]	Fold improvement (lowering) of MIC compared to parent 1a-N10, K. pneumoniae ([2]; D-form versus all-L parent)	Fold lowering of MIC compared to parent 1a-N10, E. faecalis ([3]; D-form versus all-L parent)	Fold lowering of MIC compared to parent 1a-N10, S. aureus ([4]; D-form versus all-L parent)	Membrane morphology of cells (in words) [5]	Fold improvement (lowering) of MIC compared to parent 1a-N10, E. coli ([6]; D-form versus all-L parent)	MBC, P. aeruginosa [7]	MBC, E. coli [8]	MIC, K. pneumoniae [2]	MIC, A. baumannii [9]	MIC, E. faecalis [3]	MIC, S. aureus [4]	MBC, K. pneumoniae [10]	MBC, A. baumannii [11]	MBC, E. faecalis [12]	MBC, S. aureus [13]	MIC, E. coli [6]	MIC, P. aeruginosa [14]	Solubility (in words) [15]	Time after which CFU/ml was below the detection limit [16]
CC[C@@H](C)[C@@H](NC(=O)[C@@H](CC(C)C)NC(=O)[C@@H](CCC(N)=O)NC(=O)[C@@H](CC(C)C)NC(=O)[C@H](NC(=O)[C@@H](C)NC(=O)[C@@H](CCCCN)NC(=O)[C@@H](CCCCN)NC(=O)[C@@H](CCCCN)NC(=O)[C@@H](CCCCN)NC(=O)[C@@H](CCCCN)NC(=O)[C@H](N)C(C)C)C(C)C)C(=O)N[C@H](CC(C)C)C(=O)N[C@H](CCCCN)C(=O)N[C@H](Cc1ccccc1)C(N)=O [D-1a-N10] (H-[dV][dK][dK][dK][dK][dK][dA][dV][dL][dQ][dL][dI][dL][dK][dF]-NH2; N-terminus assumed)	eliminated mutagenicity	2 fold	4 fold	8 fold	indications of changes in membrane morphology	2 fold														
RRRRFVLRLILRLL-NH2 [2i-N12]							128 µM	128 µM	64 µM	128 µM	64 µM	64 µM	128 µM	128 µM	128 µM	128 µM	64 µM	64 µM		
RRRRRRFVLRLILRLL-NH2 [2j-N12]							64 µM	128 µM	64 µM	64 µM	32 µM	64 µM	64 µM	64 µM	32 µM	64 µM	64 µM	64 µM		
VKKKKKAVLQLILKF-NH2 [1a-N10]	low resistance frequencies				no explicit membrane defects														soluble in PBS alone	0.5 h
VKKKKKAVLQLILKFLRRRR-NH2 [3b-N10]							4 µM	16 µM	16 µM	8 µM	4 µM	8 µM	16 µM	8 µM	4 µM	8 µM	16 µM	4 µM		
VRRRRRAVLQLILRFL-NH2 [3a-N10]							64 µM	32 µM	32 µM	16 µM	16 µM	32 µM	32 µM	16 µM	16 µM	32 µM	32 µM	64 µM		
